Reference: US12637468B2, “Substituted [1,2,4]triazolo[4,3-b]pyridazines as GABAA receptor modulators” (SHANGHAI SIMR BIOTECHNOLOGY CO., LTD., priority 2019, dated 2026)

Assays:
[1] = Rat liver microsome stability (RLM) experiment; type: in vitro ADME; conditions: rat liver microsomal stability, Table 4; 0.5 mg protein/mL, NADPH, 37° C., 0-45 min
Method: Effect embodiment 3 Rat liver microsome stability (RLM) experiment
Rat liver microsomes (Xenotech, item No. R1000, lot No. 1310030), 100 mM potassium phosphate buffer solution (pH 7.4), 10 mM magnesium chloride.
Compound preparation: 5 μL of compound DMSO mother liquor (10 mM) was added to 495 μL of methanol to obtain an intermediate solution with a compound concentration of 100 μM. Then 50 μL of the intermediate solution was taken and dissolved in 450 μL of potassium phosphate buffer solution to obtain a test solution with a final concentration of 10 μM.
NADPH regeneration system (concentration of isocitrate dehydrogenase 1 unit/mL).
Liver microsomes (final concentration 0.5 mg protein/mL).
Reaction termination solution: cold acetonitrile containing 100 ng/mL Tolbutamide and 100 ng/mL Labetalol as an internal standard.
• (1) Preparation of buffer solution: • Buffer solution A: 1.0 L of 0.1 M potassium phosphate buffer solution containing 1.0 mM EDTA • Buffer solution B: 1.0 L of 0.1 M dipotassium phosphate buffer solution containing 1.0 mM EDTA • Buffer solution C: 0.1 M potassium phosphate buffer, 1.0 mM EDTA, pH 7.4, titrated with 700 mL of buffer solution B and buffer solution A, monitored by pH meter. • (2) Preparation of reference substance (ketanserin) and concentration of administration solution of the test substance:
[…]: […] 10 mM DMSO reference substance stock solution and test substance stock solution were added to 190 μL of ACN, respectively. 1.5 μM administration solution (containing 0.75 mg/mL liver microsomes): […] administration solution and 18.75 μL of 20 mg/mL liver microsomes were added to 479.75 μL of buffer C on a wet ice. • (3) NADPH was added to buffer solution C to obtain a NADPH stock solution (6 mM). • (4) 30 μL of 1.5 μM administration solution (containing 0.75 mg/mL of liver microsomes) was taken on the wet ice and added to the wells of the test plate at different time points (0-, 5-, 15-, 30-, 45-min), respectively. • (5) Firstly, 135 μL of ACN containing IS was added to the wells of a 0 min test plate, and then 15 μL of the NADPH stock solution (6 mM) was added. • (6) The test plate at other time points and the NADPH stock solution were pre-heated in a 37° C. water bath for 5 minutes. • (7) 15 μL of the NADPH stock solution (6 mM) was taken and added to a pre-incubated test plate, and the reaction was started and timed. • (8) At 5 min, 15 min, 30 min and 45 min, 135 μL of CAN containing IS was added to the corresponding test plate respectively, and the test was completed. • (9) Test plates were shaken with a shaker (IKA, MTS 2/4) for 10 min (600 rpm/min) and then centrifuged for 15 min (Thermo Multifuge×3R, 5594 g). • (10) 50 μL of supernatant from each well was added to a 96-well sample plate containing 50 μL of ultrapure water (Millipore, ZMQS50F01), and the samples were analyzed by LC/MS.

[2] = Pharmacokinetic experiment on rats: brain entry ratio (brain tissue/plasma concentration ratio); type: in vivo; conditions: rat, male SD rats, po 10 mg/kg, Table 7
Method: The drug concentration ratio of plasma and brain tissue in the pharmacokinetic experiment on rats was used to evaluate the entry of compounds into brain. All rats fasted overnight before administration; the test compounds were dissolved and administered orally (po) to male SD rats, with 3 rats in each group. After administration of the test compounds, blood was collected by jugular vein puncture at 0.5 hours with about 0.25 mL per sample. The whole brain was taken at the same time. The plasma and brain tissue drug concentration were determined by LC-MS/MS method, and the pharmacokinetic parameters were calculated by Phoenix WinNonlin7.0. The dosage was 10 mg/kg, and the vehicle was 5% CMC-Na aqueous solution.

Row | Compound | RLM [1] [µL/min/mg] | Kp at 0.5 h [2]
1 | COc1cc2nnc(-c3cc(C)on3)n2nc1OCc1ccc2c(n1)CCN(C(CO)CO)C2 [Embodiment 185] | 9 | 0
2 | COc1cc2nnc(-c3cc(C)on3)n2nc1OCc1ccc2c(n1)CCN(Cc1cc(C)on1)C2 [Embodiment 187] | 15 | 0.0293
3 | COc1cc2nnc(-c3cc(C)on3)n2nc1OCc1ccc(OC2CCOC2)nn1 (stereo not shown) [Embodiment 154] | 1 | 0.0257
4 | COc1cc2nnc(-c3cc(C)on3)n2nc1OCc1ccc(OC2COC2)nn1 [Embodiment 153] | 5 | 0.02
5 | COCc1ccc(COc2nn3c(-c4cc(C)on4)nnc3cc2OC)nn1 [Embodiment 151] | 1 | 0.02
6 | COc1cc2nnc(-c3cc(C)on3)n2nc1OCc1ccc2c(n1)CCN(C1COC1)C2 [Embodiment 84, 3-(7-Methoxy-6-((6-(oxetan-3-yl)-5,6,7,8-tetrahydro-1,6-naphthyridin-2-yl)methoxy)-[1,2,4]triazolo[4,3-b]pyridazin-3-yl)-5-methylisoxazole] | 0 | 0.0045
7 | COCc1cn2nc(COc3nn4c(-c5cc(C)on5)nnc4cc3OC)ccc2n1 [Embodiment 213] | 10 | 0.0179
8 | COc1cc2nnc(-c3cc(C)on3)n2nc1OCc1ccc(C2(F)CN(C3COC3)C2)cn1 [Embodiment 128] | 6 | 0.032
9 | COCCOCc1ccc(COc2nn3c(-c4cc(C)on4)nnc3cc2OC)nn1 [Embodiment 166] | 0 | 0.01
10 | COc1cc2nnc(-c3cc(C)on3)n2nc1OCc1ccc2c(n1)CCN(C1CCOCC1)C2 [Embodiment 186] | 22 | 0.0442
11 | COc1cc2nnc(-c3cc(C)on3)n2nc1OCc1ccc(OC2CCOCC2)nn1 [Embodiment 152] | 23 | 0.0243
12 | COCCCOc1ccc(COc2nn3c(-c4noc(C)n4)nnc3cc2OC)nn1 [Embodiment 129] | 14 | 0.047
13 | COc1cc2nnc(-c3cc(C)on3)n2nc1OCc1ccc2c(n1)CN(C)C2 [Embodiment 160, 3-(7-Methoxy-6-((6-methyl-6,7-dihydro-5H-pyrrolo[3,4-b]pyridin-2-yl)methoxy)-[1,2,4]triazolo[4,3-b]pyridazin-3-yl)-5-methylisoxazole] | 6 | 0.0441
14 | COc1cc2nnc(-c3cc(C)on3)n2nc1OCc1ccc2c(n1)CN(C1CCOCC1)C2 [Embodiment 253] | 10 | 0.0133
